Source: PMC8165439, “Chymase Dependent Pathway of Angiotensin II Generation and Rapeseed Derived Peptides for Antihypertensive Treatment of Spontaneously Hypertensive Rats” (Frontiers in Pharmacology, 2021)

How the values were obtained:
[1] = tested on: spontaneously hypertensive rats (SHR); experiment: Plasma and urine parameters during chronic treatment; assay type: in vivo, rat; details: mean ± SEM
Description: (§1) Systolic and diastolic blood pressure (SBP and DBP, respectively) and heart rate (HR) were measured in conscious unrestrained rats by telemetry technique, once a week for 24 h. 24 hour observations in metabolic cages (Tecniplast S. p.A. Buguggiate, Italy) were performed weekly. The diuresis, weight of feces, food and water intake were measured; urine and blood samples were collected on day 0, 7th and 14th, and were centrifuged at 1200 g (blood for 15 min and urine for 5 min), then the samples were stored at –80°C until analysis.
(§2) On day 0 all animals received saline (0.9% NaCl) and then, for 14 consecutive days, the substance tested. Chymostatin (CH, 2 mg/kg/day) was dissolved in DMSO and then diluted with PBS (final concentration of DMSO was 0.15%). Peptides RIY (7.5 mg/kg/day) and VWIS (12.5 mg/kg/day) were dissolved in saline (0.9% NaCl, S). The substances were administered through the femoral vein during 10 min in the volume of 0.5 ml to young SHR (infusion rate: 3 ml/h) and 1 ml to adult rats (infusion rate: 6 ml/h). Control rats received solvents (either DMSO or saline) in the same volume.
(§3) Urine volume was determined by gravimetric method. Sodium and potassium concentration in urine and plasma were measured by flame photometry (PFP7/C, Jenway Ltd, Stone, United Kingdom). Urine and plasma osmolality were measured by freezing point depression (Osmomat® 030 M, Gonotec, Berlin, Germany). These parameters were used to determine the excretion rates of total solutes (UosmV), sodium (UNaV) and potassium (UKV). Commercially available ELISA kits were used to measure nitric oxide metabolites (NOx, SunRed, Shanghai) and albumin (Albumin, ICL, Portland) concentration in urine. Excretion rate of NOx (UNOxV) and albumin (UAE) were calculated.

[2] = tested on: spontaneously hypertensive rats (SHR); experiment: Chronic iv treatment, urinary albumin excretion (UAE); assay type: in vivo, rat; details: mean ± SEM, n = 5
Description: as §1, §2, §3

[3] = tested on: ACE; details: ref Petrie et al., 2001; cited from earlier work
[4] = tested on: anesthetized spontaneously hypertensive rats (SHR); experiment: Acute infusion of chymostatin to anesthetized rats, mean arterial blood pressure; assay type: in vivo, rat; details: anesthetized adult SHR, chymostatin 2 mg/kg iv infusion 1 h, n = 7; decrease observed 30 min after cessation of infusion
Description: In acute experiments rats were anesthetized with intraperitoneal (ip) sodium thiopental (100 mg/kg; Sandoz GmbH, Kundl, Austria), which provided stable anesthesia for about 4 h. All surgical preparations were already described in detail ([Gawrys et al., 2014]; [Badzynska et al., 2020]). Throughout the experiment the temperature of the animal was kept constant (37°C). A cannula was placed in the trachea to ensure a free airway. The jugular vein was cannulated for infusion of fluids and drugs; during surgical preparations 3% bovine albumin in Ringer solution was infused at 10 ml/kg/h. For mean arterial blood pressure (MBP) measurement, a Teflon catheter was placed in the femoral artery (Stoelting Blood Pressure Meter, Wood Dale, IL, United States). After surgical preparations and stabilization of all parameters, a short control period (30 min) was made to obtain baseline for measured parameters. Chymostatin or its solvent (final concentration of DMSO was 0.05%) were administered for 1 h. After cessation of chymostatin infusion, a recovery period (30 min) was made. In the end, the animals were sacrificed by sodium thiopental overdose (iv); and vital life signs (blood pressure, breathing) were monitored until death.

[5] = tested on: spontaneously hypertensive rats (SHR); experiment: Metabolic parameters in metabolic cages during chronic treatment; assay type: in vivo, rat; details: mean ± SEM
Description: as §1, §2, §3

[6] = adult SHR (SHR-16), day 0 (baseline)
[7] = adult SHR (SHR-16), day 7 of daily iv CH 2, RIY 7.5, VWIS 12.5 mg/kg/day
[8] = adult SHR (SHR-16), day 7 of daily iv treatment
[9] = adult SHR (SHR-16), day 14 of daily iv CH 2, RIY 7.5, VWIS 12.5 mg/kg/day
[10] = adult SHR (SHR-16), day 14 of daily iv treatment
[11] = young SHR (SHR-6), day 0 (baseline), CH n=8-10, RIY n=5, VWIS n=5-6
[12] = young SHR (SHR-6), day 0 (baseline)
[13] = young SHR (SHR-6), day 7 of daily iv CH 2, RIY 7.5, VWIS 12.5 mg/kg/day
[14] = young SHR (SHR-6), day 7 of daily iv treatment
[15] = young SHR (SHR-6), day 14 of daily iv CH 2, RIY 7.5, VWIS 12.5 mg/kg/day
[16] = young SHR (SHR-6), day 14 of daily iv treatment

CC(C)C[C@H](NC(=O)[C@@H](NC(=O)N[C@@H](Cc1ccccc1)C(=O)O)[C@@H]1CCN=C(N)N1)C(=O)N[C@H](C=O)Cc1ccccc1 [CH, chymostatin]
Plasma osmolality ([1]; adult SHR (SHR-16), day 0 (baseline), CH n=5-8, RIY n=5-6, VWIS n=5-6): 307±2 mOsm/l
Plasma K+ concentration [1, 6]: 4.39 ± 0.27 mmol/L
Plasma Na+ concentration [1, 6]: 134.6 ± 2.6 mmol/L
Potassium excretion [1, 6]: 1.28 ± 0.19 µmol/min
Sodium excretion [1, 6]: 1.01 ± 0.13 µmol/min
Total solute excretion [1, 6]: 7.05±0.90 µOsm/min
Plasma osmolality [1, 7]: 299±2 mOsm/l
Plasma K+ concentration [1, 8]: 4.21 ± 0.10 mmol/L
Plasma Na+ concentration [1, 8]: 130.5 ± 2.3 mmol/L
Potassium excretion [1, 8]: 1.24 ± 0.25 µmol/min
Sodium excretion [1, 8]: 0.77 ± 0.23 µmol/min
Total solute excretion [1, 8]: 7.11±1.34 µOsm/min
Plasma osmolality [1, 9]: 294±5 mOsm/l
Plasma K+ concentration [1, 10]: 3.95 ± 0.20 mmol/L
Plasma Na+ concentration [1, 10]: 126.1 ± 1.0 mmol/L
Potassium excretion [1, 10]: 1.71 ± 0.15 µmol/min
Sodium excretion [1, 10]: 1.11 ± 0.33 µmol/min
Total solute excretion [1, 10]: 7.04±1.15 µOsm/min
Plasma osmolality [1, 11]: 303±3 mOsm/l
Plasma K+ concentration [1, 12]: 4.34 ± 0.16 mmol/L
Plasma Na+ concentration [1, 12]: 125.8 ± 2.1 mmol/L
Potassium excretion [1, 12]: 0.48 ± 0.08 µmol/min
Sodium excretion [1, 12]: 0.51 ± 0.09 µmol/min
Total solute excretion [1, 12]: 2.94±0.68 µOsm/min
Plasma osmolality [1, 13]: 297±3 mOsm/l
Plasma K+ concentration [1, 14]: 4.61 ± 0.12 mmol/L
Plasma Na+ concentration [1, 14]: 126.0 ± 2.3 mmol/L
Potassium excretion [1, 14]: 0.95 ± 0.12 µmol/min
Sodium excretion [1, 14]: 0.90 ± 0.12 µmol/min
Total solute excretion [1, 14]: 6.05±1.16 µOsm/min
Plasma osmolality [1, 15]: 295±6 mOsm/l
Plasma K+ concentration [1, 16]: 3.98 ± 0.13 mmol/L
Plasma Na+ concentration [1, 16]: 126.0 ± 1.6 mmol/L
Potassium excretion [1, 16]: 1.01 ± 0.60 µmol/min
Sodium excretion [1, 16]: 0.93 ± 0.47 µmol/min
Total solute excretion [1, 16]: 7.82±0.47 µOsm/min
Urinary albumin excretion (UAE) ([2]; adult SHR, day 0 (baseline, saline)): 0.59 ± 0.33 mg/24h
Urinary albumin excretion (UAE) ([2]; adult SHR, day 7 of daily iv CH 2, RIY 7.5, VWIS 12.5 mg/kg/day): 0.41 ± 0.04 mg/24h
Urinary albumin excretion (UAE) ([2]; adult SHR, day 14 of daily iv CH 2, RIY 7.5, VWIS 12.5 mg/kg/day): 0.84 ± 0.32 mg/24h
Urinary albumin excretion (UAE) ([2]; young SHR, day 0 (baseline, saline)): 0.03 ± 0.01 mg/24h
Urinary albumin excretion (UAE) ([2]; young SHR, day 7 of daily iv CH 2, RIY 7.5, VWIS 12.5 mg/kg/day): 0.07 ± 0.01 mg/24h
Urinary albumin excretion (UAE) ([2]; young SHR, day 14 of daily iv CH 2, RIY 7.5, VWIS 12.5 mg/kg/day): 0.13 ± 0.03 mg/24h
block of ACE by chymostatin [3]: does not block ACE
Mean blood pressure (MBP) after single intravenous infusion [4]: decreased significantly
Body weight ([5]; adult SHR (SHR-16), day 0 (baseline), CH n=8, RIY n=5-6, VWIS n=5-6): 271 ± 16 g
Diuresis [5, 6]: 6.9 ± 1.9 µL/min
Faeces [5, 6]: 9±1 g/24 h
Food intake [5, 6]: 21±1 g/24 h
Water intake [5, 6]: 29±3 g/24 h
Body weight [5, 7]: 285 ± 17 g
Diuresis [5, 8]: 7.4 ± 2.1 µL/min
Faeces [5, 8]: 8±1 g/24 h
Food intake [5, 8]: 17±1 g/24 h
Water intake [5, 8]: 29±3 g/24 h
Body weight [5, 9]: 298 ± 19 g
Diuresis [5, 10]: 8.1 ± 2.9 µL/min
Faeces [5, 10]: 9±1 g/24 h
Food intake [5, 10]: 20±2 g/24 h
Water intake [5, 10]: 29±4 g/24 h
Body weight [5, 11]: 131 ± 10 g
Diuresis [5, 12]: 6.1 ± 0.5 µL/min
Faeces [5, 12]: 7±1 g/24 h
Food intake [5, 12]: 15±1 g/24 h
Water intake [5, 12]: 23±2 g/24 h
Body weight [5, 13]: 159 ± 5 g
Diuresis [5, 14]: 9.9 ± 1.4 µL/min
Faeces [5, 14]: 11±1 g/24 h
Food intake [5, 14]: 18±2 g/24 h
Water intake [5, 14]: 29±5 g/24 h
Body weight [5, 15]: 196 ± 4 g
Diuresis [5, 16]: 10.0 ± 0.9 µL/min
Faeces [5, 16]: 12±1 g/24 h
Food intake [5, 16]: 20±2 g/24 h
Water intake [5, 16]: 32±3 g/24 h
